Laboratory results taken from patent US7683057B2, “Kinase inhibitor compounds” (Tyrogenex, Inc., priority 2007, dated 2010).

Assays:
[1] = system: AMPK (r); assay: AMPK Biochemical Assay; design: species or system rat; settings: compared with sunitinib
Protocol: The compounds are assayed for biochemical activity essentially according to the following procedure. In a final reaction volume of 25 μl, AMPK (r) (5-10 mU) is incubated with 32 mM HEPES pH7.4, 0.65 mM DTT, 0.012% Brij-35, 200 μM AMP, 200 μM AMARAASAAALARRR, 10 mM MgAcetate and [(γ-33P-ATP] (specific activity approx. 500 cpm/pmol, concentration as required). The reaction is initiated by the addition of the MgATP mix. After incubation for 40 minutes at room temperature, the reaction is stopped by the addition of 5 μl of a 3% phosphoric acid solution. 10 μl of the reaction is then spotted onto a P30 filtermat and washed three times for 5 minutes in 75 mM phosphoric acid and once in methanol prior to drying and scintillation counting.

[2] = system: AMPK; settings: proteomic study, literature; cited from earlier work

Row | Compound | AMPK inhibitory activities [1] | inhibition of AMPK [2]
1 | Cc1[nH]c(/C=C2\C(=O)Nc3ccc(F)cc32)c(C)c1C(=O)N[C@@H]1CCC[C@@H]1C(=O)N1CCCC1 [Example 36, 5-[5-Fluoro-2-oxo-1,2-dihydro-indol-(3Z)-ylidenemethyl]-2,4-dimethyl-1H-pyrrole-3-carboxylic acid [(1R,2S)-2-(pyrrolidine-1-carbonyl)-cyclopentyl]-amide] | significantly less AMPK inhibitory activities than sunitinib | –
2 | Cc1[nH]c(/C=C2\C(=O)Nc3ccc(F)cc32)c(C)c1C(=O)NC1CS(=O)(=O)CC1O (stereo not drawn) [Example 17, 5-[5-Fluoro-2-oxo-1,2-dihydro-indol-(3Z)-ylidenemethyl]-2,4-dimethyl-1H-pyrrole-3-carboxylic acid (4-hydroxy-1,1-dioxo-tetrahydro-thiophen-3-yl)-amide] | significantly less AMPK inhibitory activities than sunitinib | –
3 | Cc1[nH]c(/C=C2\C(=O)Nc3ccc(F)cc32)c(C)c1C(=O)N[C@H]1CCNC1=O [Example 25, 5-[5-Fluoro-2-oxo-1,2-dihydro-indol-(3Z)-ylidenemethyl]-2,4-dimethyl-1H-pyrrole-3-carboxylic acid ((S)-2-oxo-pyrrolidin-3-yl)-amide] | significantly less AMPK inhibitory activities than sunitinib | –
4 | Cc1[nH]c(/C=C2\C(=O)Nc3ccccc32)c(C)c1CCC(=O)O [SU6668] | – | inhibits
5 | Cc1[nH]c(/C=C2\C(=O)Nc3ccc(F)cc32)c(C)c1C(=O)NC1CCN(C(=O)CO)CC1 [Example 22, 5-[5-Fluoro-2-oxo-1,2-dihydro-indol-(3Z)-ylidenemethyl]-2,4-dimethyl-1H-pyrrole-3-carboxylic acid [1-(2-hydroxy-acetyl)-piperidin-4-yl]-amide] | significantly less AMPK inhibitory activities than sunitinib | –
6 | Cc1[nH]c(/C=C2\C(=O)Nc3ccc(F)cc32)c(C)c1C(=O)N[C@H]1CCN(C(=O)C(=O)N(C)C)C1 [Example 29, 5-[5-Fluoro-2-oxo-1,2-dihydro-indol-(3Z)-ylidenemethyl]-2,4-dimethyl-1H-pyrrole-3-carboxylic acid ((S)-1-dimethylaminooxalyl-pyrrolidin-3-yl)-amide] | significantly less AMPK inhibitory activities than sunitinib | –
7 | Cc1[nH]c(/C=C2\C(=O)Nc3ccc(F)cc32)c(C)c1C(=O)N[C@@H]1CON(C2CCOCC2)C1=O [Example 48, 5-[5-Fluoro-2-oxo-1,2-dihydro-indol-(3Z)-ylidenemethyl]-2,4-dimethyl-1H-pyrrole-3-carboxylic acid [(R)-3-oxo-2-(tetrahydro-pyran-4-yl)-isoxazolidin-4-yl]-amide] | significantly less AMPK inhibitory activities than sunitinib | –
8 | Cc1[nH]c(/C=C2\C(=O)Nc3ccc(F)cc32)c(C)c1C(=O)N[C@H]1CC[C@@H](C(=O)N2CCOCC2)CC1 [Example 30, 5-[5-Fluoro-2-oxo-1,2-dihydro-indol-(3Z)-ylidenemethyl]-2,4-dimethyl-1H-pyrrole-3-carboxylic acid [4-(morpholine-4-carbonyl)-cyclohexyl]-amide] | significantly less AMPK inhibitory activities than sunitinib | –
9 | Cc1[nH]c(/C=C2\C(=O)Nc3ccc(F)cc32)c(C)c1C(=O)N[C@H]1CC[C@@H](C(=O)N2CCCC2)CC1 [Example 31, 5-[5-Fluoro-2-oxo-1,2-dihydro-indol-(3Z)-ylidenemethyl]-2,4-dimethyl-1H-pyrrole-3-carboxylic acid [4-(pyrrolidine-1-carbonyl)-cyclohexyl]-amide] | significantly less AMPK inhibitory activities than sunitinib | –
